Results reported in patent publication US12516024B2, “KDM4 inhibitors” (ALBERT-LUDWIGS-UNIVERSITY FREIBURG, priority 2017, dated 2026).

Assays:
[1] = Pharmacokinetic study iv/po; type: in vivo; conditions: dose iv/po 5/10 mg/kg
[2] = target: KDM5B (Homo sapiens, UniProt Q9UGL1); test: KDM demethylase inhibition (IC50), KDM5B; type: biochemical; conditions: in words
Method: The expression levels in the BCSC cells of the various KDM4 family members were evaluated by western blot analysis. Metzger et al., LSD1 demethylates repressive histone marks to promote and rogen receptor-dependent transcription, 437 Nature 436 (2005). […] These observations indicate that KDM4 are therapeutic targets for treatment of BCSC populations. Accordingly, a screen to characterize KDM4(i) was performed to explore compounds suitable for treating cancers, in particular cancers such as therapy resistant clonal BCSC-originating tumors.

KDM5B, sequence (Q9UGL1 whole entry): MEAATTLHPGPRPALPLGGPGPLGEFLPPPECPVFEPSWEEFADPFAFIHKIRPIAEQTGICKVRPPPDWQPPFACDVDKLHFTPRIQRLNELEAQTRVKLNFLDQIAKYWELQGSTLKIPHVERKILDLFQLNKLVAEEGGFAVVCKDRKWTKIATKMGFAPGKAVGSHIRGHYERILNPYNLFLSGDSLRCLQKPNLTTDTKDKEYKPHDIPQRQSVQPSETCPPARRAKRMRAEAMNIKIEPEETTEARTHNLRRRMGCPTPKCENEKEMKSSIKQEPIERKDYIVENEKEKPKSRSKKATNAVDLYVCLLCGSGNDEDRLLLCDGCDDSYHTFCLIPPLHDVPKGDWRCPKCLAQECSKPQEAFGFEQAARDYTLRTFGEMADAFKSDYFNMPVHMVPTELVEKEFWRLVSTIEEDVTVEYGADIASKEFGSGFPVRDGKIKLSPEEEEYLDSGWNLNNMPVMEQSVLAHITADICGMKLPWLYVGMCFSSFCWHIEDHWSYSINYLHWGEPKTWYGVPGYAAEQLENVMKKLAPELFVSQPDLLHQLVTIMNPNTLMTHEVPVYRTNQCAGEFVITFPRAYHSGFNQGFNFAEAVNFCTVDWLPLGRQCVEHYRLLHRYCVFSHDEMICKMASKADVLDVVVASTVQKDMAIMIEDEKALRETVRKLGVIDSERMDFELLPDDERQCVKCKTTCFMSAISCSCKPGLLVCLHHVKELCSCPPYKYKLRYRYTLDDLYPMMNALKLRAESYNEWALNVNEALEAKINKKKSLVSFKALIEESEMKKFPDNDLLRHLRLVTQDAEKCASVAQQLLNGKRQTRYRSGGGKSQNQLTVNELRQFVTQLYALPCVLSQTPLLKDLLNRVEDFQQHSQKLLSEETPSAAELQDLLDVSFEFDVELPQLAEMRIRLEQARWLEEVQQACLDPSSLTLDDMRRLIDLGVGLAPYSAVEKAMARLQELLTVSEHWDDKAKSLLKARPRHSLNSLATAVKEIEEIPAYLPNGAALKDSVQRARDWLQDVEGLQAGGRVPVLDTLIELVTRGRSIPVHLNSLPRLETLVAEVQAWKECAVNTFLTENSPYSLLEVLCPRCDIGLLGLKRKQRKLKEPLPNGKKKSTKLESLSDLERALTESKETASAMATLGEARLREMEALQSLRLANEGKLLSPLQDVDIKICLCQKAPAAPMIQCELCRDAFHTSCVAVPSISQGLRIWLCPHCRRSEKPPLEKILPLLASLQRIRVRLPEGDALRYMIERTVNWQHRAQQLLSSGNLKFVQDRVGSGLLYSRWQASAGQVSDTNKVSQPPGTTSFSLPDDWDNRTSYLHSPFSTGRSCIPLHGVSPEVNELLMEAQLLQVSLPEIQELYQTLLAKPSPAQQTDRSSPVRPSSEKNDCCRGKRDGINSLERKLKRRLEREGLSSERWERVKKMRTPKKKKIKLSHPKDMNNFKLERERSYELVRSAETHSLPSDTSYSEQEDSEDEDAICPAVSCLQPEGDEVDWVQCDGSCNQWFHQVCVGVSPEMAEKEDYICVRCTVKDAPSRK

## CN(c1ccccc1)c1ccc2c(c1)CCC[C@H]2CNc1cnccc1C(=O)O [Compound I, 3-({[(1R)-6-[methyl(phenyl)amino]-1,2,3,4-tetrahydronaphthalen-1-yl]methyl}amino)pyridine-4-carboxylic acid]
[1]; plasma, read-out: F % (bioavailability)
  bioavailability: 30.4%
[1]; po
  po ½: 2.57 h
[2]
  effect on the demethylase activity of KDM5B: weak effect
